Source: US9334264B2, “NAMPT inhibitors” (AbbVie Inc., priority 2012, dated 2016)

Legend:
[1] = target: NAMPT (human, recombinant, C-terminally His-tagged) (Homo sapiens, UniProt P43490); assay: Time-Resolved Fluorescence Resonance Energy Transfer (TR-FRET) Binding Assay of NAMPT; details: absence of substrates; 6.8 nM NAMPT, 200 nM probe, equilibrated 3 hours
Summary of the method: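 Compounds (typically 11 half-log dilutions, 2% DMSO final) equilibrated 3 h at room temperature with 6.8 nM human C-His NAMPT, 1 nM Tb-anti-His antibody and 200 nM fluorescent competitive probe in pH 7.5 HEPES buffer. IC50 derived by logistic fit of normalized TR-FRET ratio (520/495 nm).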

NAMPT = NAMPT (Homo sapiens, UniProt P43490); assay: Time-Resolved Fluorescence Resonance Energy Transfer (TR-FRET) Binding Assay of NAMPT with PRPP; details: 200 μM PRPP and 2.5 mM ATP; 2 nM NAMPT, 2 nM probe, equilibrated 16 hours
Chain of NAMPT (P43490 whole entry): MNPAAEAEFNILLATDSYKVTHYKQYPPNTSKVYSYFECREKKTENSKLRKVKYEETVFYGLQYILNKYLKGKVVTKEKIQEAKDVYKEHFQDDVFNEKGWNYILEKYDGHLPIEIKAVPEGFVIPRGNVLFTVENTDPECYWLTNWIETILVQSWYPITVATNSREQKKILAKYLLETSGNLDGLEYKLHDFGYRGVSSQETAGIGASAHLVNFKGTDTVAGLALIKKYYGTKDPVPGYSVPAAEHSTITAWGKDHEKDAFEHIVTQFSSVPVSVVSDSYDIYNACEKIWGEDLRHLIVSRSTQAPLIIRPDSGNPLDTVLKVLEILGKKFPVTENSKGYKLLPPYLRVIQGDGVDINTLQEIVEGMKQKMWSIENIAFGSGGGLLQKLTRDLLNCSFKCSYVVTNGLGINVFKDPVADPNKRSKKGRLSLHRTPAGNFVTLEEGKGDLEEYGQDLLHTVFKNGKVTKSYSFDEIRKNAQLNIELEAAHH
Summary of the method: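 Compounds were equilibrated for 16 hours before TR-FRET readout, with substrates present (200 μM PRPP, 2.5 mM ATP) to permit enzymatic modification. Final mix: 2 nM His-tagged NAMPT, 2 nM probe, 1 nM Tb-anti-His antibody, 2% DMSO.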

Chain of NAMPT (human, recombinant, C-terminally His-tagged) (P43490 whole entry): as above

COCCC(=O)N(Cc1ccc(Cl)cn1)c1ncc(C(=O)NCCCn2ccnc2)s1 [Example 96, 2-{[(5-chloropyridin-2-yl)methyl](3-methoxypropanoyl)amino}-N-[3-(1H-imidazol-1-yl)propyl]-1,3-thiazole-5-carboxamide]
IC50 [1]: 4190 nM | IC50 (NAMPT): 3.35 nM

CCOC(=O)CCCNC(=O)N(Cc1ccc(C#N)cc1)c1ncc(C(=O)NCCCn2ccnc2)s1 [Example 160, ethyl 4-{[(4-cyanobenzyl)(5-{[3-(1H-imidazol-1-yl)propyl]carbamoyl}-1,3-thiazol-2-yl)carbamoyl]amino}butanoate]
IC50 [1]: > 10000 nM | IC50 (NAMPT): 195 nM

C=C[C@@H](CO)NC(=O)N(Cc1ccc(C#N)cc1)c1ncc(C(=O)NCCCn2ccnc2)s1 [Example 131, 2-[(4-cyanobenzyl){[(2S)-1-hydroxybut-3-en-2-yl]carbamoyl}amino]-N-[3-(1H-imidazol-1-yl)propyl]-1,3-thiazole-5-carboxamide]
IC50 [1]: 4780 nM | IC50 (NAMPT): 0.743 nM

CCCOCCNC(=O)N(Cc1ccc(F)cc1)c1ncc(C(=O)NCCCn2ccnc2)s1 [Example 78, 2-{(4-fluorobenzyl)[(2-propoxyethyl)carbamoyl]amino}-N-[3-(1H-imidazol-1-yl)propyl]-1,3-thiazole-5-carboxamide]
IC50 [1]: 2900 nM | IC50 (NAMPT): 0.969 nM

CC(C)CCN(Cc1cccc(Cl)c1)c1ncc(C(=O)NCCCn2ccnc2)s1 [Example 58, 2-[(3-chlorobenzyl)(3-methylbutyl)amino]-N-[3-(1H-imidazol-1-yl)propyl]-1,3-thiazole-5-carboxamide]
IC50 [1]: 1720 nM | IC50 (NAMPT): 807 nM

COCCC(=O)N(CC1CCCCO1)c1ncc(C(=O)NCCCn2ccnc2)s1 (stereo not shown) [Example 177, N-[3-(1H-imidazol-1-yl)propyl]-2-[(3-methoxypropanoyl)(tetrahydro-2H-pyran-2-ylmethyl)amino]-1,3-thiazole-5-carboxamide]
IC50 [1]: 4620 nM | IC50 (NAMPT): 0.653 nM

COCCC(=O)N(CC1CCC(=O)N1)c1ncc(C(=O)NCCCn2ccnc2)s1 (stereo not shown) [Example 194, N-[3-(1H-imidazol-1-yl)propyl]-2-{(3-methoxypropanoyl)[(5-oxopyrrolidin-2-yl)methyl]amino}-1,3-thiazole-5-carboxamide]
IC50 [1]: 7250 nM | IC50 (NAMPT): 1.12 nM

COCC(COC)NC(=O)N(Cc1ccc(F)cc1)c1ncc(C(=O)NCCCn2ccnc2)s1 [Example 89, 2-{[(1,3-dimethoxypropan-2-yl)carbamoyl](4-fluorobenzyl)amino}-N-[3-(1H-imidazol-1-yl)propyl]-1,3-thiazole-5-carboxamide]
IC50 [1]: 5830 nM | IC50 (NAMPT): 1.98 nM

CC(C)OCCCNC(=O)N(Cc1ccc(C#N)cc1)c1ncc(C(=O)NCCCn2ccnc2)s1 [Example 126, 2-[(4-cyanobenzyl){[3-(propan-2-yloxy)propyl]carbamoyl}amino]-N-[3-(1H-imidazol-1-yl)propyl]-1,3-thiazole-5-carboxamide]
IC50 [1]: 4180 nM | IC50 (NAMPT): 1.3 nM

Cc1nccn1CCCNC(=O)c1cnc(N(Cc2ccc(F)cc2)C(=O)CC(C)C)s1 [Example 53, 2-[(4-fluorobenzyl)(3-methylbutanoyl)amino]-N-[3-(2-methyl-1H-imidazol-1-yl)propyl]-1,3-thiazole-5-carboxamide]
IC50 [1]: 2530 nM | IC50 (NAMPT): 320 nM

COCCC(=O)N(CC(O)c1ccc(OC)cc1)c1ncc(C(=O)NCCCn2ccnc2)s1 (stereo not shown) [Example 109, 2-{[2-hydroxy-2-(4-methoxyphenyl)ethyl](3-methoxypropanoyl)amino}-N-[3-(1H-imidazol-1-yl)propyl]-1,3-thiazole-5-carboxamide acetate (1:1)]
IC50 [1]: > 10000 nM | IC50 (NAMPT): 3.74 nM

COCCC(=O)N(CCC1OCCO1)c1ncc(C(=O)NCCCn2ccnc2)s1 [Example 180, 2-{[2-(1,3-dioxolan-2-yl)ethyl](3-methoxypropanoyl)amino}-N-[3-(1H-imidazol-1-yl)propyl]-1,3-thiazole-5-carboxamide]
IC50 [1]: 7710 nM | IC50 (NAMPT): 0.333 nM

COC(C)CNC(=O)N(Cc1ccc(C#N)cc1)c1ncc(C(=O)NCCCn2ccnc2)s1 (stereo not shown) [Example 124, 2-{(4-cyanobenzyl)[(2-methoxypropyl)carbamoyl]amino}-N-[3-(1H-imidazol-1-yl)propyl]-1,3-thiazole-5-carboxamide]
IC50 [1]: 3520 nM | IC50 (NAMPT): 0.624 nM

CC(C)OCCNC(=O)N(Cc1ccc(C#N)cc1)c1ncc(C(=O)NCCCn2ccnc2)s1 [Example 123, 2-[(4-cyanobenzyl){[2-(propan-2-yloxy)ethyl]carbamoyl}amino]-N-[3-(1H-imidazol-1-yl)propyl]-1,3-thiazole-5-carboxamide]
IC50 [1]: 3820 nM | IC50 (NAMPT): 0.631 nM

O=C(NCCCn1ccnc1)c1cnc(N(Cc2ccc(F)cc2)C(=O)c2cccc(Cl)c2)s1 [Example 12, 2-[(3-chlorobenzoyl)(4-fluorobenzyl)amino]-N-[3-(1H-imidazol-1-yl)propyl]-1,3-thiazole-5-carboxamide]
IC50 [1]: 303 nM | IC50 (NAMPT): 0.241 nM

NC(=O)C1CCCN(C(=O)N(Cc2ccc(F)cc2)c2ncc(C(=O)NCCCn3ccnc3)s2)C1 (stereo not shown) [Example 65, N^1-(4-fluorobenzyl)-N^1-(5-{[3-(1H-imidazol-1-yl)propyl]carbamoyl}-1,3-thiazol-2-yl)piperidine-1,3-dicarboxamide]
IC50 [1]: > 10000 nM | IC50 (NAMPT): 5.37 nM

CC(=O)O[C@@H](C)C(=O)N(CCC(C)C)c1ncc(C(=O)NCCCn2ccnc2)s1 [Example 153, (2S)-1-[(5-{[3-(1H-imidazol-1-yl)propyl]carbamoyl}-1,3-thiazol-2-yl)(3-methylbutyl)amino]-1-oxopropan-2-yl acetate]
IC50 [1]: 1430 nM | IC50 (NAMPT): 0.286 nM

O=C(NCCCn1ccnc1)c1cnc(N(Cc2ccc(F)cc2)C(=O)NCC2OCCO2)s1 [Example 86, 2-{[(1,3-dioxolan-2-ylmethyl)carbamoyl](4-fluorobenzyl)amino}-N-[3-(1H-imidazol-1-yl)propyl]-1,3-thiazole-5-carboxamide]
IC50 [1]: > 10000 nM | IC50 (NAMPT): 2.66 nM

COCCCN1CCN(CC(=O)N(Cc2ccc(F)cc2)c2ncc(C(=O)NCCCn3ccnc3)s2)CC1 [Example 38, 2-[(4-fluorobenzyl){[4-(3-methoxypropyl)piperazin-1-yl]acetyl}amino]-N-[3-(1H-imidazol-1-yl)propyl]-1,3-thiazole-5-carboxamide]
IC50 [1]: 2690 nM | IC50 (NAMPT): 1.35 nM

COCCC(=O)N(Cc1cocn1)c1ncc(C(=O)NCCCn2ccnc2)s1 [Example 95, N-[3-(1H-imidazol-1-yl)propyl]-2-[(3-methoxypropanoyl)(1,3-oxazol-4-ylmethyl)amino]-1,3-thiazole-5-carboxamide]
IC50 [1]: 3890 nM | IC50 (NAMPT): 15.1 nM

O=C(NCCCn1ccnc1)c1cnc(N(Cc2ccc(F)cc2)C(=O)N2CC(O)C2)s1 [Example 66, 2-{(4-fluorobenzyl)[(3-hydroxyazetidin-1-yl)carbonyl]amino}-N-[3-(1H-imidazol-1-yl)propyl]-1,3-thiazole-5-carboxamide]
IC50 [1]: > 10000 nM | IC50 (NAMPT): 2.42 nM

O=C(NCCCn1ccnc1)c1cnc(N(CCc2ccc(Cl)cn2)C(=O)C2CCOC2)s1 (stereo not shown) [Example 208, 2-{[2-(5-chloropyridin-2-yl)ethyl](tetrahydrofuran-3-ylcarbonyl)amino}-N-[3-(1H-imidazol-1-yl)propyl]-1,3-thiazole-5-carboxamide]
IC50 [1]: 2890 nM | IC50 (NAMPT): 0.25 nM

COCCC(=O)N(CCc1ccccc1F)c1ncc(C(=O)NCCCn2ccnc2)s1 [Example 108, 2-{[2-(2-fluorophenyl)ethyl](3-methoxypropanoyl)amino}-N-[3-(1H-imidazol-1-yl)propyl]-1,3-thiazole-5-carboxamide acetate (1:1)]
IC50 [1]: 1450 nM | IC50 (NAMPT): 1.61 nM

COCCN(C(=O)CCc1ccc(F)cc1)c1ncc(C(=O)NCCCn2ccnc2)s1 [Example 182, 2-{[3-(4-fluorophenyl)propanoyl](2-methoxyethyl)amino}-N-[3-(1H-imidazol-1-yl)propyl]-1,3-thiazole-5-carboxamide]
IC50 [1]: 2590 nM | IC50 (NAMPT): 0.264 nM

COCCC(=O)N(c1ncc(C(=O)NCCCn2ccnc2)s1)C(C)c1ccccn1 (stereo not shown) [Example 110, N-[3-(1H-imidazol-1-yl)propyl]-2-{(3-methoxypropanoyl)[1-(pyridin-2-yl)ethyl]amino}-1,3-thiazole-5-carboxamide]
IC50 [1]: > 10000 nM | IC50 (NAMPT): 23.2 nM

N#Cc1ccc(CN(C(=O)NCCOCCO)c2ncc(C(=O)NCCCn3ccnc3)s2)cc1 [Example 125, 2-[(4-cyanobenzyl){[2-(2-hydroxyethoxy)ethyl]carbamoyl}amino]-N-[3-(1H-imidazol-1-yl)propyl]-1,3-thiazole-5-carboxamide]
IC50 [1]: > 10000 nM | IC50 (NAMPT): 0.712 nM

CC(C)CNC(=O)N(Cc1ccc(F)cc1)c1ncc(C(=O)NCCCn2ccnc2)s1 [Example 64, 2-{(4-fluorobenzyl)[(2-methylpropyl)carbamoyl]amino}-N-[3-(1H-imidazol-1-yl)propyl]-1,3-thiazole-5-carboxamide]
IC50 [1]: 1850 nM | IC50 (NAMPT): 2.97 nM

CC(C)CCN(C(=O)C(C)Oc1ccccc1)c1ncc(C(=O)NCCCn2ccnc2)s1 (stereo not shown) [Example 77, N-[3-(1H-imidazol-1-yl)propyl]-2-[(3-methylbutyl)(2-phenoxypropanoyl)amino]-1,3-thiazole-5-carboxamide]
IC50 [1]: 95.6 nM | IC50 (NAMPT): 0.774 nM

O=C(NCCCn1ccnc1)c1cnc(N(Cc2ccc(F)cc2)C(=O)CN2CCN(CC3CC3)CC2)s1 [Example 34, 2-[{[4-(cyclopropylmethyl)piperazin-1-yl]acetyl}(4-fluorobenzyl)amino]-N-[3-(1H-imidazol-1-yl)propyl]-1,3-thiazole-5-carboxamide]
IC50 [1]: 7570 nM | IC50 (NAMPT): 0.502 nM
